Test results from patent publication US20250368628A1, “METHODS AND COMPOUNDS FOR MODULATING INHERITED GENETIC DISEASES” (Design Therapeutics, Inc., priority 2022, published 2025).
Where two headings read alike, the source gives them in different places.

How the values were obtained:
F35T cells = experiment: Foci reduction in FECD (CAG10-Cy3 FISH, foci per nucleus); format: cell-based
Procedure: F35T cells were cultured in media containing Opti-MEM (ThermoFisher) supplemented with 8% FBS, 20 μg/mL ascorbic acid, […] CaCl2, 0.08% chondroitin sulfate, 1×Pen/Strep, 100 μg/mL bovine pituitary extract, 5 ng/mL epidermal growth factor, and 20 ng/mL nerve growth factor. Throughout the culture, cells were maintained in an incubator at 37° C. and 5% CO2. Media was refreshed every 48 hours. Once cells reached adequate confluency, they were harvested and seeded in 96 well plates with a density of 5000 cells per well in 200 μL of the supplemented Opti-MEM media. Cells were returned to the incubator and left to settle for 24 hours at 37° C. and 5% CO2. Cells were then treated in 8-point dose response with compounds or negative controls and incubated for 48 hours at 37° C. and 5% CO2. After treatment, cells were fixed with 4% PFA for 20 minutes at room temperature, followed by permeabilization with 70% ethanol. Cells were incubated at −20° C. for a minimum of 1 hour and maximum of 72 hours, after which the ethanol was removed, and cells were washed with PBS. Cells were rehydrated with 30% formamide and 2×SSC buffer for 10 minutes at room temperature. Cells were then incubated overnight at 37° C. in the hybridization solution containing 30% formamide, 2×SSC, 55 mg/mL dextran sulfate, 2.75 mg/mL bovine serum albumin, 0.2 μg/mL Herring sperm DNA, 1% vanadyl-ribonucleoside complex, and 0.05% 10 μM CAG10-Cy3 probe. Cells were washed twice with 30% formamide in 2×SSC, incubating the cells while shaking with the second wash at 37° C. and 200 rpm for 60 minutes. Cells were stained with 5 mg/mL DAPI 1:1000 in PBS, incubating at room temperature for 5 minutes. Cells were then washed with PBS and sealed with adhesive foil, with each well containing a final volume of 150 μL PBS. Cells were imaged on a Cytation 5 and analyzed on a foci per nucleus basis.

[1] = test system: Myotonic Dystrophy 1 affected patient fibroblasts (Coriel GM04602; 1600 CTG repeats); experiment: DM1 foci reduction assay (EC50 assay; CAG10-Cy3 FISH, foci per nucleus); format: cell-based
Summary of the method: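 Foci per nucleus counted by 20× imaging of 4 areas per well, after overnight FISH with 5 nM CAG10-Cy3 and DAPI staining of fixed, permeabilized cells. DM1 fibroblasts (GM04602, 1600 CTG) were dosed 48 h at 37 °C, 8 points, 3-fold dilutions, 3 μM top concentration.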

[2] = F35T cells, 48 h treatment, foci per nucleus; read-out: FECD EC50, 48 h
[3] = Homo sapiens, Fibroblast; DM1 patient fibroblasts, 48 h treatment, foci per nucleus; read-out: DM1 EC50, 48 h

Structure (SMILES) | EC50 (F35T cells; [2]) | EC50 [1, 3] | EC50 (F35T cells; F35T cells, foci per nucleus, 48 h treatment; read-out: FECD EC50, 48 h) | EC50 ([1]; Homo sapiens, Fibroblast; DM1 patient fibroblasts, foci per nucleus, 48 h treatment; read-out: DM1 EC50, 48 h)
Cn1cc(NC(=O)c2nc(NC(=O)CCNC(=O)c3cc(NC(=O)c4nccn4C)cn3C)cn2C)cc1C(=O)NCCCC(=O)Nc1cn(C)c(C(=O)NCCC(=O)Nc2cc(C(=O)Nc3cn(C)c(C(=O)NCCC(=O)NCCOCCOCCOCCN4CCN(C5CCN(c6ccc([N+](=O)[O-])cc6)CC5)CC4)n3)n(C)c2)n1 [Compound B-25] | > 1000 nM | 500 to 1000 nM | – | –
Cn1cc(NC(=O)c2nc(NC(=O)CCNC(=O)c3cc(NC(=O)c4nccn4C)cn3C)cn2C)cc1C(=O)NCCCC(=O)Nc1cn(C)c(C(=O)NCCC(=O)Nc2cc(C(=O)Nc3cn(C)c(C(=O)NCCC(=O)N4CCC(C#CC#CC5CCN(C(=O)OC(C)(C)C)CC5)CC4)n3)n(C)c2)n1 [Compound B-378, Tert-butyl 4-[4-(1-{3-[(1-methyl-4-{1-methyl-4-[3-({1-methyl-4-[4-({1-methyl-4-[1-methyl-4-(3-{[1-methyl-4-(1-methylimidazole-2-amido)pyrrol-2-yl]formamido}propanamido)imidazole-2-amido]pyrrol-2-yl}formamido)butanamido]imidazol-2-yl}formamido)propanamido]pyrrole-2-amido}imidazol-2-yl)formamido]propanoyl}piperidin-4-yl)buta-1,3-diyn-1-yl]piperidine-1-carboxylate] | 100 to 500 nM | > 1000 nM | – | –
CCCNC(=O)CCNC(=O)c1nc(NC(=O)c2cc(NC(=O)CCNC(=O)c3nc(NC(=O)CCCNC(=O)c4cc(NC(=O)c5nc(NC(=O)CCNC(=O)c6cc(NC(=O)c7nccn7C)cn6C)cn5C)c[nH]4)cn3C)cn2C)cn1C [Compound B-396] | 100 to 500 nM | 100 to 500 nM | – | –
CN1CCN(CCCNC(=O)CCNC(=O)c2nc(NC(=O)c3cc(NC(=O)CCNC(=O)c4nc(NC(=O)CCCNC(=O)c5cc(NC(=O)c6nc(NC(=O)CCNC(=O)c7cc(NC(=O)c8nccn8C)cn7C)cn6C)cn5C)cn4C)cn3C)cn2C)CC1 [Compound B-36] | 100 to 500 nM | 100 to 500 nM | – | –
Cn1cc(NC(=O)c2nc(NC(=O)CCNC(=O)c3cc(NC(=O)c4nccn4C)cn3C)cn2C)cc1C(=O)NCCCC(=O)Nc1cn(C)c(C(=O)NCCC(=O)Nc2cc(C(=O)Nc3cn(C)c(C(=O)NCCC(=O)NCCCCCN4CCC(C#CC#CC5CCN(C(=O)c6ccc(C(C)(C)C)cc6)CC5)CC4)n3)n(C)c2)n1 [Compound B-177] | 100 to 500 nM | 500 to 1000 nM | – | –
CCCNC(=O)c1nc(NC(=O)c2cc(NC(=O)CCNC(=O)c3nc(NC(=O)CCCNC(=O)c4cc(NC(=O)c5nc(NC(=O)CCNC(=O)c6cc(NC(=O)c7nccn7C)cn6C)cn5C)cn4CCCCCCN)cn3C)cn2C)cn1C [Compound B-234] | 100 to 500 nM | 500 to 1000 nM | – | –
CCCNC(=O)CCNC(=O)c1nc(NC(=O)c2cc(NC(=O)CCNC(=O)c3nc(NC(=O)CCCNC(=O)c4cc(NC(=O)c5nc(NC(=O)CCNC(=O)c6cc(NC(=O)c7nc(N=C(N)N)cn7C)cn6C)cn5C)cn4C)cn3C)cn2C)cn1C [Compound B-325] | > 1000 nM | 500 to 1000 nM | – | –
CN(C)CCCn1cc(NC(=O)c2nc(NC(=O)CCNC(=O)c3cc(NC(=O)c4nccn4C)cn3C)cn2C)cc1C(=O)NCCCC(=O)Nc1cn(C)c(C(=O)NCCC(=O)Nc2cc(C(=O)Nc3cn(C)c(C(=O)NCCC(=O)N4CCCCC4)n3)n(C)c2)n1 [Compound B-430] | – | – | < 100 nM | < 100 nM
CCN(CC)CCCC[C@H](NC(=O)C(C)(C)C)C(=O)NCCOCCOCCOCCOCCOCCNC(=O)CCNC(=O)c1nc(NC(=O)c2cc(NC(=O)CCNC(=O)c3nc(NC(=O)CCCNC(=O)c4cc(NC(=O)c5nc(NC(=O)CCNC(=O)c6cc(NC(=O)c7nccn7C)cn6C)cn5C)cn4C)cn3C)cn2C)cn1C [Compound B-90] | > 1000 nM | 500 to 1000 nM | – | –
COC(=O)CCCN(CCCC(=O)OC)Cc1ncc(C2CN(C(=O)CCNC(=O)c3nc(NC(=O)c4cc(NC(=O)CCNC(=O)c5nc(NC(=O)CCCNC(=O)c6cc(NC(=O)c7nc(NC(=O)CCNC(=O)c8cc(NC(=O)c9nccn9C)cn8C)cn7C)cn6C)cn5C)cn4C)cn3C)C2)[nH]1 [Compound B-369] | 100 to 500 nM | > 1000 nM | – | –
Cn1cc(NC(=O)c2nc(NC(=O)CCNC(=O)c3cc(NC(=O)c4nccn4C)cn3C)cn2C)cc1C(=O)NCCCC(=O)Nc1cn(C)c(C(=O)NCCC(=O)Nc2cc(C(=O)Nc3cn(C)c(C(=O)NCCC(=O)N4CCOCC4)n3)n(C)c2)n1 [Compound B-48] | 100 to 500 nM | 100 to 500 nM | – | –
CN(C)c1ccc(C#CC#CCNC(=O)CCNC(=O)c2nc(NC(=O)c3cc(NC(=O)CCNC(=O)c4nc(NC(=O)CCCNC(=O)c5cc(NC(=O)c6nc(NC(=O)CCNC(=O)c7cc(NC(=O)c8nccn8C)cn7C)cn6C)cn5C)cn4C)cn3C)cn2C)cc1 [Compound B-133] | – | > 1000 nM | – | –
CCCCCC(=O)N1CCC(C#CC#CC2CCN(CCCCCNC(=O)CCNC(=O)c3nc(NC(=O)c4cc(NC(=O)CCNC(=O)c5nc(NC(=O)CCCNC(=O)c6cc(NC(=O)c7nc(NC(=O)CCNC(=O)c8cc(NC(=O)c9nccn9C)cn8C)cn7C)cn6C)cn5C)cn4C)cn3C)CC2)CC1 [Compound B-182] | – | 500 to 1000 nM | – | –
CN(C)CCCNC(=O)c1cc(NC(=O)CCNC(=O)c2nc(NC(=O)CCCNC(=O)c3cc(NC(=O)c4nc(NC(=O)CCNC(=O)c5cc(NC(=O)c6nccn6C)cn5C)cn4C)cn3C)cn2C)cn1C [Compound B-212] | – | > 1000 nM | – | –
COC(=O)c1cncc(OCCOCCOCCNC(=O)c2nc(NC(=O)c3cc(NC(=O)CCNC(=O)c4nc(NC(=O)CCCNC(=O)c5cc(NC(=O)c6nc(NC(=O)CCNC(=O)c7cc(NC(=O)c8nccn8C)cn7C)cn6C)cn5C)cn4C)cn3C)cn2C)c1 [Compound B-342] | – | 100 to 500 nM | – | –
CCN(CC)CCCC[C@H](NC(=O)c1cccc(C(=O)O)c1)C(=O)NCCOCCOCCOCCOCCOCCNC(=O)c1nc(NC(=O)c2cc(NC(=O)CCNC(=O)c3nc(NC(=O)CCCNC(=O)c4cc(NC(=O)c5nc(NC(=O)CCNC(=O)c6cc(NC(=O)c7nccn7C)cn6C)cn5C)cn4C)cn3C)cn2C)cn1C [Compound B-220] | – | > 1000 nM | – | –
Cn1cnc(NC(=O)c2cc(NC(=O)CCNC(=O)c3nc(NC(=O)CCCNC(=O)c4cc(NC(=O)c5nc(NC(=O)CCNC(=O)c6cc(NC(=O)c7nccn7C)cn6C)cn5C)cn4C)cn3C)cn2C)c1 [Compound B-243] | – | > 1000 nM | – | –
CC(C)CCC(=O)N1CCC(C#CC#CC2CCN(CCCCCNC(=O)CCNC(=O)c3nc(NC(=O)c4cc(NC(=O)CCNC(=O)c5nc(NC(=O)CCCNC(=O)c6cc(NC(=O)c7nc(NC(=O)CCNC(=O)c8cc(NC(=O)c9nccn9C)cn8C)cn7C)cn6C)cn5C)cn4C)cn3C)CC2)CC1 [Compound B-184] | – | > 1000 nM | – | –
Cn1cc(NC(=O)c2nc(NC(=O)CCNC(=O)c3cc(NC(=O)c4nccn4C)cn3C)cn2C)cc1C(=O)NCCCC(=O)Nc1cn(C)c(C(=O)NCCC(=O)Nc2cc(C(=O)Nc3cn(C)c(C(=O)NCCC(=O)N[C@H]4CC[C@H](O)CC4)n3)n(C)c2)n1 [Compound B-54] | – | 100 to 500 nM | – | –
CCCNC(=O)CCNC(=O)c1nc(NC(=O)c2cc(NC(=O)CCNC(=O)c3nc(NC(=O)CCCNC(=O)c4cc(NC(=O)c5nc(NC(=O)CCNC(=O)c6cc(NC(=O)c7nccn7C)cn6C)cn5C)cn4C)cn3C)cn2CCCCCN(CCOCCOCCOCCOC)CCOCCOCCOCCOC)cn1C [Compound B-157] | – | > 1000 nM | – | –
CN(C)CC#CC#Cc1ccc(NC(=O)CCNC(=O)c2nc(NC(=O)c3cc(NC(=O)CCNC(=O)c4nc(NC(=O)CCCNC(=O)c5cc(NC(=O)c6nc(NC(=O)CCNC(=O)c7cc(NC(=O)c8nccn8C)cn7C)cn6C)cn5C)cn4C)cn3C)cn2C)cc1 [Compound B-139] | – | > 1000 nM | – | –
CN(C)C(=O)c1nc(NC(=O)c2cc(NC(=O)CCNC(=O)c3nc(NC(=O)CCCNC(=O)c4cc(NC(=O)c5nc(NC(=O)CCNC(=O)c6cc(NC(=O)c7nccn7C)cn6C)cn5C)cn4C)cn3C)cn2C)cn1C [Compound B-314] | – | > 1000 nM | – | –
CN1CCN(CC2CCN(C(=O)CCNC(=O)c3nc(NC(=O)c4cc(NC(=O)CCNC(=O)c5nc(NC(=O)CCCNC(=O)c6cc(NC(=O)c7nc(NC(=O)CCNC(=O)c8cc(NC(=O)c9nccn9C)cn8C)cn7C)cn6C)cn5C)cn4C)cn3C)CC2)CC1 [Compound B-129] | – | 100 to 500 nM | – | –
Cn1cc(NC(=O)c2nc(NC(=O)CCNC(=O)c3cc(NC(=O)c4nccn4C)cn3C)cn2C)cc1C(=O)NCCCC(=O)Nc1cn(C)c(C(=O)NCCC(=O)Nc2cc(C(=O)Nc3cn(C)c(C(=O)NCCC(=O)N4CCC(O)(C#CC5CCN(C(=O)OC(C)(C)C)CC5)CC4)n3)n(C)c2)n1 [Compound B-195] | – | > 1000 nM | – | –
Cn1cc(NC(=O)c2nc(NC(=O)CCNC(=O)c3cc(NC(=O)c4nccn4C)cn3C)cn2C)cc1C(=O)NCCCC(=O)Nc1cn(C)c(C(=O)NCCC(=O)Nc2cc(C(=O)Nc3cn(C)c(C(=O)NCCC(=O)N4CCC(C#CC5(O)CCNCC5)CC4)n3)n(C)c2)n1 [Compound B-198] | – | 500 to 1000 nM | – | –
